Measurements from patent publication US20250002450A1, “CATIONIC STEROID COMPOUNDS, METHOD OF OBTAINING THEREOF, FORMULATIONS COMPRISING THEREOF AND THEIR USES” (UNIVERSIDADE DO PORTO, priority 2021, published 2025).

Assays:
S. aureus 66/1 = assay: Checkerboard synergy with OXA; type: cell-based, Staphylococcus aureus
Method: The combined effect of compound 1 and CTX for E. coli SA/2, VAN for E. faecalis B3/101, COL for E. coli 2252, erythromycin for E. coli ATCC 25922, and OXA for S. aureus 66/1 was evaluated by the checkerboard method. […] The interaction between compound 1 and erythromycin was assessed for E. coli ATCC 25922. Gram-negative bacteria are intrinsically resistant to erythromycin, a macrolide that inhibits protein synthesis, and cannot penetrate the outer membrane of Gram-negative bacteria, which is impermeable to hydrophobic antibiotics. Ascertain ceragenins have been previously described to be able to enhance the efficacy of such antibiotics, this possibility was investigated for compound 1 and a FICI of 0.6 was obtained.

E. coli ATCC 25922 [1] = assay: Membrane integrity, propidium iodide influx assay (SYTO 9/PI); type: cell-based, Escherichia coli
Method: The influx of PI in E. coli ATCC 25922 treated with 2×MIC, MIC, and ½×MIC of compound 1 was evaluated using a commercial kit that includes fluorescent nucleic acid stains SYTO® 9 and PI. SYTO® 9 can enter cells with intact or damaged membranes, generally labeling both, whereas PI only penetrates cells with severe membrane lesions, causing a reduction in SYTO® 9 fluorescence when both dyes are present.
In these assays, COL and AMP were used as controls. COL is a polycationic antimicrobial peptide with a complex mode of action, that ultimately solubilizes the bacterial cell membrane. AMP is an aminopenicillin that inhibits cell wall synthesis by inhibiting penicillin-binding proteins. E. coli ATCC 25922 cells were treated with compound 1 and, at several time-points (0, 1, and 18 h), samples were taken, and SYTO® 9/PI ratio was determined ([FIG. 4]). The entrance of PI is reflected in a reduction of this ratio.
Briefly, E. coli ATCC 25922 colonies from overnight cultures in MHA were suspended in CAMHB to prepare an inoculum with a final concentration of approximately 5×10^5 CFU/mL. The tubes were incubated overnight at 36° C. in a water bath with shaking. Following this, the cell suspensions were centrifuged at 3500 rpm for 15 min, the supernatant was removed, the cells were carefully resuspended in fresh CAMHB and the suspension was adjusted to 0.5 McFarland. An aliquot of this suspension was then added to each tube of CAMHB alone (control) or CAMHB plus an appropriate amount of test compound. […] The tubes were incubated at 36 degrees C. in a water bath with shaking and, at pre-established time points (0, 1, and 18 h), […] aliquots were retrieved for further analysis. After the exposure time, cells were washed two times, resuspended in 0.85% NaCl, and 100 μL of each cell suspension was distributed in the wells of a microtiter plate, in triplicate. 100 μL of a mixture of 30 μM PI and 5 μM SYTO® 9 prepared in ultrapure water were added to each well, and the plates were incubated at room temperature, in the dark, for 15 min. The fluorescence intensity of the stained bacterial suspensions was determined using a microplate reader (Synergy HT, BioTek Instruments, Winooski, VT, USA) by two consecutive measurements with excitation wavelength 485 nm and emission wavelength 528 nm (SYTO® 9) or 590 nm (PI). Data were analyzed by subtracting background fluorescence from each sample, dividing the fluorescence intensity of SYTO® 9 by fluorescence intensity of PI, and the results are presented as a percentage of control. Three independent assays were performed in triplicate for each experimental condition.

E. coli ATCC 25922 [2] = assay: Enzymatic/metabolic activity, MTT assay; type: cell-based, Escherichia coli
Method: To determine whether compound 1 could also affect enzymatic activity, 2-(4,5-dimethyl-2-thiazolyl)-3,5-diphenyl-2H-tetrazolium bromide (MTT) assay was performed. This assay can also be used as an indirect measure of cellular viability, as tetrazolium salts are reduced to purple formazan by metabolically active cells. E. coli ATCC 25922 cells were treated with compound 1 and COL and AMP were used as controls, as described above. Measurements were made at 0, 1, and 18 h.
Enzymatic activity was evaluated by the MTT assay, as previously described, with some modifications. Cell suspensions of E. coli ATCC 25922 were prepared as described above, as well as test conditions and controls. At each time point (0, 1, and 18 h), 500 μL aliquots were collected, centrifuged at 3500 rpm for 10 min, the supernatant was removed, and 300 μL of MTT solution (0.5 mg/mL in CAMHB, at 36 degrees C.) (Thiazolyl Blue Tetrazolium Bromide, Alfa Aesar, Ward Hill, MA, USA) were added. After a 30 min incubation at 36° C., the insoluble formazan product resulting from the conversion of MTT by metabolically active cells was solubilized with 300 μL of DMSO. 100 μL of each sample were transferred in duplicate to the wells of a microtiter plate and the extent of the reduction of MTT to formazan was quantified by measuring the absorbance at 570 nm (Thermo Scientific Multiskan® EX, Thermo Fisher Scientific, Waltham, MA, USA). Three independent assays were performed in duplicate, and results are expressed as a percentage of untreated control.

## C[C@H](CCC(=O)NCCN)[C@H]1CC[C@H]2[C@@H]3CC[C@@H]4C[C@H](O)CC[C@]4(C)[C@H]3C[C@H](O)[C@]12C [Compound 1, (R)—N-(2-aminoethyl)-4-((3R,5R,8R,9S,10S,12S,13R,14S,17R)-3,12-dihydroxy-10,13-dimethylhexadecahydro-1H-cyclopenta[a]phenanthren-17-yl) pentanamida]
S. aureus 66/1
  combined effect with OXA (in words): No synergistic interactions
E. coli ATCC 25922 [1]; 32 μg/mL (MIC), after 1 and 18 h
  reduction in SYTO 9/PI ratio vs untreated control: significant
E. coli ATCC 25922 [1]; 64 μg/mL (2×MIC, MBC), 0, 1, 18 h
  reduction in SYTO 9/PI ratio vs untreated control: significant at all time points
E. coli ATCC 25922 [2]; 32 μg/mL, after 1 and 18 h
  metabolic activity (MTT) vs untreated control: decrease in enzymatic activity
E. coli ATCC 25922 [2]; 64 μg/mL, 0, 1, 18 h
  metabolic activity (MTT) vs untreated control: significantly reduced at all time points
